Source: PubChem BioAssay (NCI)
“And” between values parts separate entries of the source, which are not always exact repeats. Equal values may be shown once.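 Each compound was tested at five concentrations against cells in 96-well plates for 48 hours. GI50 is the concentration that inhibits growth by half. At the TGI there is no net growth.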

What was measured:
Assay in all cases: growth of human tumour cells (NCI), 48 h
HOP-92 NSCLC = system: HOP-92 NSCLC
EKVX NSCLC = system: EKVX NSCLC
HOP-62 NSCLC = system: HOP-62 NSCLC
UACC-62 melanoma = system: UACC-62 melanoma
SNB-19 CNS = system: SNB-19 CNS
M14 melanoma = system: M14 melanoma
OVCAR-5 ovarian = system: OVCAR-5 ovarian
COLO 205 colon = system: COLO 205 colon
NCI-H23 lung = system: NCI-H23 lung
NCI/ADR-RES ovarian = system: NCI/ADR-RES ovarian

SMILES	GI50 (HOP-92 NSCLC) [µM]	TGI (HOP-92 NSCLC) [µM]	GI50 (EKVX NSCLC) [µM]	TGI (EKVX NSCLC) [µM]	GI50 (HOP-62 NSCLC)	TGI (HOP-62 NSCLC) [µM]	GI50 (UACC-62 melanoma) [µM]	TGI (UACC-62 melanoma) [µM]	GI50 (SNB-19 CNS) [µM]	TGI (SNB-19 CNS) [µM]	GI50 (M14 melanoma)	TGI (M14 melanoma) [µM]	GI50 (OVCAR-5 ovarian) [µM]	TGI (OVCAR-5 ovarian) [µM]	GI50 (COLO 205 colon) [µM]	TGI (COLO 205 colon) [µM]	GI50 (NCI-H23 lung) [µM]	TGI (NCI-H23 lung) [µM]	GI50 (NCI/ADR-RES ovarian) [µM]	TGI (NCI/ADR-RES ovarian) [µM]
O=C(Nc1cccc(C(F)(F)F)c1)c1cccc(NC2=C(Cl)C(=O)N(Cc3ccccc3)C2=O)c1	2.89	32.7	68.5	> 100	40.1 µM	> 100	12.1	29.9	36.8	> 100	3.68 µM	14.3	> 100	> 100	32.3	> 100	25.4	64.8	18.1	53.5
CCCCSCc1nc2nc(Cl)c(Cl)nc2[nH]1	–	> 100	–	> 100	–	42	–	29.5	–	> 100	–	66.6	–	> 100	–	37	–	44.6	–	90.8
CC(=O)NCCCCCCNC(C)=O	–	> 6730	–	> 10000	–	> 10000	–	9870	–	> 10000	–	> 10000	–	> 10000	–	> 10000	–	> 10000	–	> 10000
CCn1c(-c2nonc2N)nc2c(C#CC(C)(C)O)nc(O[C@@H](CN)c3ccccc3)cc21	0.0727	1.12	0.982	9.38	0.294 µM	1.98	0.361	1.02	0.236	3.24	0.407 µM	1.67	0.859	15.8	0.123	0.646	0.344	2.97	6.38	25
COc1ccc(NC(=O)Nc2ccc(Nc3nc(C)cc(Nc4ccc(C)cc4)n3)cc2)cc1	1.44	3.11	2.03	4.42	1.58 µM	3.05	1.41	3.04	1.06	3.45	1.77 µM	3.72	1.72	3.22	1.94	3.62	–	–	1.33	3.75
CCCC[P+](c1ccccc1)(c1ccccc1)c1ccccc1	0.675	6.58	1	> 100	2.55 µM	> 100	1.9	> 100	3.6	> 100	6.79 µM	> 100	12.5	> 100	1.24	7.15	2.57	32.6	> 100	> 100
CCCCN(CCCC)CC(C)(C)C(O)c1ccc(OC)c2ccccc12 (stereo not given)	3.11	8.81	4.24	22.9	6.5 µM	20.6	4.87	21.3	10.6	28.6	4.21 µM	17.7	2.4	16.4	3.1	15.8	2.29	9.36	6.13	23.8
O=C(NCCCNC(=O)OCc1ccc2c(Br)cc(Br)c(O)c2n1)OCc1ccc2c(Br)cc(Br)c(O)c2n1	> 100	> 100	> 100	> 100	> 100 µM	> 100	> 100	> 100	> 100	> 100	> 100 µM	> 100	> 100	> 100	> 100	> 100	> 100	> 100	> 100	> 100
CC(F)(F)c1cc(F)ccc1-c1sc2cc(O)ccc2c1Oc1ccc(/C=C/C(=O)O)cc1	11.1	27.3	10.6	39.6	9.03 µM	26.8	6.06	22.9	7.28	20.2	4.96 µM	25	17.4	37.7	–	–	15.2	37.4	6.66	40.1
COc1ccc2[nH]c(-c3cccc(N(C)C)c3)cc(=O)c2c1	3.25	–	1.17	30.7	0.335 µM and 0.844 µM	94.2	0.483	> 100	–	–	0.325 µM and 0.552 µM	> 100	0.784	> 100	0.379	–	0.664	–	0.487	–
